Structures can show the parent of a compound that is named as a salt.

In the experiment the test system is human PRP (platelet rich plasma). The experiment in a line: Inhibition of platelet aggregation (human PRP, ADP-induced). The experiment is classed as cell-based. Particulars: ADP 5 μM final as inducer, compound and PRP preincubated 2 minutes. The text has this:
The structures of compounds obtained in Examples are as follows. The numbers of the compounds correspond to those of the examples. [drawing 11] Pharmacological test: Inhibition of platelet aggregation
The effect of the compound according to the present invention on inhibiting the platelet aggregation was examined with human PRP (platelet rich plasma).
Nine volumes of a blood sample was taken out of the vein of a normal human with a syringe in which one volume of a 3.8% sodium citrate solution was charged. The blood sample was centrifuged at 170×g at room temperature for 10 minutes. The supernatant thus obtained was isolated as PRP. The residual blood sample that PRP had been taken out was centrifuged at 2,700×g for 15 minutes. The supernatant was then taken as platelet poor plasma (PPP).
Platelet aggregation test was conducted with an aggligometer (PAM-8C; manufactured by MEBANICKS Co., Ltd.). Compounds to be tested were dissolved in a 50% DMSO saline, a 50% methanol saline or physiological saline. The compound and PRP were preincubated for 2 minutes. The ADP (CHRONO-PAR REAGENTS 384 ADP, CHRONO-LOG Corp.) was used as an inducer in the form of a dilution with saline so that the final concentration is 5 μM.
Anti-platelet aggregation activity was obtained as an inhibition rate to platelet aggregation effect of ADP in the absence of a compound to be tested as follows: [formula]
With `CCOC(=O)COc1ccc(C(=O)CN2CCN(C3CCNCC3)CC2=O)cc1` [Example 14, ethyl 4-[[4-(piperidin-4-yl)-2-oxopiperazin-1-yl]acetyl]phenoxyacetate], the IC50 stood at 250 nM.
Then `O=C(O)COc1ccc(C(=O)CN2CCN(C3CCNCC3)CC2)cc1OCC(=O)O` [Example 3, [[4-[4-(piperidin-4-yl)piperazin-1-yl]acetyl]-o-phenylene]dioxy]diacetic acid trifluoroacetate], with 150 nM.
Then `O=C(O)COc1ccc(C(=O)CN2CCN(C3CCNCC3)CC2=O)cc1OCC(=O)O` [Example 1, [[4-[[4-(piperidin-4-yl)-2-oxopiperazin-1-yl]acetyl]-o-phenylene]dioxy]diacetic acid trifluoroacetate], with 55 nM; and `O=C(O)CCc1ccc(C(=O)CN2CCN(C3CCNCC3)CC2=O)cc1` [Example 16, 3-[4-[[4-(piperidin-4-yl)-2-oxopiperazin-1-yl]acetyl]phenyl]propionic acid trifluoroacetate], with 420 nM; and `O=C(O)COc1ccc(C(=O)CN2CCN(C3CCNCC3)CC2=O)cc1` [Example 5], with 32 nM.
The value for `O=C(O)COc1ccc(C(=O)CN2CC(=O)N(C3CCNCC3)CC2=O)cc1` [Example 12, 4-[[4-(piperidin-4-yl)-2,5-dioxopiperazin-1-yl]acetyl]phenoxyacetic acid hydrochloride] was 1200 nM.
The molecule `O=C(O)COc1ccc(C(=O)CN2C(=O)CN(C3CCNCC3)CC2=O)cc1` [Example 8, 4-[[4-(piperidin-4-yl)-2,6-dioxopiperazin-1-yl]acetyl]phenoxyacetic acid hydrochloride] had an IC50 of 19 nM. This IC50 is about 63-fold lower than that of the molecule before.
`O=C(O)COC1CCN(C(=O)CN2CCN(C3CCNCC3)CC2=O)CC1` [Example 2, [[1-[4-(piperidin-4-yl)-2-oxopiperazin-1-yl]acetyl]piperidin-4-yl]oxyaceticacid trifluoroacetate] gave an IC50 of 80 nM.
The value for `CCOC(=O)COc1ccc(C(=O)CN2CCN(C3CCNCC3)CC2=O)cc1OCC(=O)OCC` [Example 4] was 560 nM; that for `CCCCOC(=O)COc1ccc(C(=O)CN2CC(=O)N(C3CCNCC3)CC2=O)cc1` [Example 11] was 1100 nM.
Then `O=C(O)COc1ccc(C(=O)CN2CCN(C3CCNCC3)C(=O)C2=O)cc1` [Example 10, 4-[[4-(piperidin-4-yl)-2,3-dioxopiperazin-1-yl]acetyl]phenoxyacetic acid.hydrochloride], with 470 nM; and `O=C(O)COC1CCN(C(=O)CN2CCC(N3CCNCC3)CC2)CC1` [Example 6, [[1-[4-(piperazin-4-yl)piperidin-1-yl]acetyl]piperidin-4-yl]oxyacetic acid trifluoroacetate], with 2300 nM.
Then `CCOC(=O)COc1ccc(C(=O)CN2CCN(C3CCN(Cc4oc(=O)oc4C)CC3)CC2=O)cc1` [Example 15, ethyl 4-[[4-[1-(5-methyl-2-oxodioxol-4-yl)methylpiperidin-4-yl]-2-oxopiperazin-1-yl]acetyl]phenoxyacetate], with 300 nM; and `CCCCOC(=O)COc1ccc(C(=O)CN2C(=O)CN(C3CCNCC3)CC2=O)cc1` [Example 7, n-butyl 4-[[4-(piperidin-4-yl)-2,6-dioxopiperazin-1-yl]acetyl]phenoxyacetate hydro chloride], with 240 nM.
`CCCCOC(=O)COc1ccc(C(=O)CN2CCN(C3CCNCC3)CC2=O)cc1` [Example 13, n-butyl 4-[[4-(piperidin-4-yl)-2-oxopiperazin-1-yl]acetyl]phenoxyacetate dihydrochloride] registered a half-inhibitory concentration (IC50) of 49 nM.
Turning to `CCCCOC(=O)COc1ccc(C(=O)CN2CCN(C3CCNCC3)C(=O)C2=O)cc1` [Example 9, n-butyl 4-[[4-(piperidin-4-yl)-2,3-dioxopiperazin-1-yl]acetyl]phenoxyacetate hydro chloride], the IC50 was 1200 nM.

Source of the values: patent US5814636A, “Compounds with platelet aggregation inhibitor activity” (Meiji Seika Kabushiki Kaisha, priority 1994, dated 1998).
